Assay results: patent publication US9655862B2, “Ocular nanoformulation and method of use in angiogenesis-mediated disorders” (priority 2013, dated 2017)
“Also recorded” adds a separate entry of the source.

Legend:
[1] = tested on: retinal neovascularization; assay: Oxygen-induced retinopathy mouse model (retinopathy of prematurity), retinal neovascularization; format: in vivo
Experimental: SNACH and SNACH Nanoparticles (1 mg/kg) in PBS at pH 7-7.5, Control: PBS at 1 mg/ml on postnatal day 12 and 15, Mode of Administration: Intraperitoneal or eye drops.
An animal model of a mice model was used. The mice model used was the Oxygen-induced retinopathy mouse model as described by Smith L E, W. E., McLellan A, Kostyk S K, D'Amato R, Sullivan R, D'Amore P A. (1994), “Oxygen-induced retinopathy in the mouse”, Invest Ophthalmol Vis Sci 35(1): 101-111.
The neonatal mice were exposed to hyperoxic conditions for 5 days, beginning at age p7 for the pups and continuing through p12 when they are returned to normal oxygen atmosphere (8-10 animals/group). Treatment group SNACH at 1 mg/kg administered IP or eye drops at two separate doses one at P12 and the other at P15. Day 17 animals were scarified and eyes removed for retinal Neovascularization evaluation. The removed eyes were stained with H&E stain. Additionally in upcoming study 3 additional animals per group were used for ocular tissue levels of SNACH after SNACH administration by LC/MS/MS.
Induction of oxygen-induced retinopathy in mouse model, in accordance with embodiments of the present invention. […]

[2] = tested on: Neovascularization-mediated by VEGF+FGF2; assay: Chick chorioallantoic membrane (CAM) model of angiogenesis; format: in vivo; settings: VEGF and FGF2 at 1 μg/ml each, SNACH 2 ug/CAM, 3-day incubation
Experimental: The effect of SNACH on Neovascularization-mediated by VEGF+FGF2 was examined in the CAM model. Briefly, ten-day old chick embryos were purchased from Spafas, Inc. (Preston, Conn.) and incubated at 37° C. with 55% relative humidity. A hypodermic needle was used to make a small hole in the shell at the air sac and a second hole will be made on the broadside of the egg, directly over an avascular portion of the embryonic membrane that will be identified by candling. A false air sac was created beneath the second hole by the application of negative pressure at the first hole, causing the CAM to separate from the shell. A window, approximately 1.0 cm^2, was cut in the shell over the dropped CAM with a small crafts grinding wheel (Dremel, Division of Emerson Electric Co., Racine, Wis.), allowing direct access to the underlying CAM. […] Digital images of CAM sections exposed to filters were collected, using a 3-CCD color video camera system (Toshiba America, New York, N.Y.), and analyzed with Image-Pro software (Media Cybernetics, Silver Spring, Md.). The numbers of vessel branch points contained in a circular region equal to the area of each filter disk were counted. One image were counted in each CAM preparation, and findings from 6-8 CAM preparations/group were analyzed for each treatment condition.

[3] = tested on: neovascularization secondary to ROP; settings: intravitreal injection; cited from earlier work
[4] = tested on: choroidal neovascular membranes; settings: wet AMD, Phase 3 clinical trials; cited from earlier work

## sulfated non-anticoagulant heparin [SNACH]
[1]; ROP mice
  neovascular regression in ROP mice model: causes neovascular regression
[1]; neonatal mouse, 1.0 mg/kg, IP on day 12 and 15
  inhibition of retinal neovascularization (mean total area of neovascularization): 60-70%
[2]
  inhibition of angiogenesis induced by VEGF and FGF2: maximal inhibition of angiogenesis; also recorded: potent angiogenesis inhibitors

## bevacizumab
[3]
  regression of neovascularization secondary to ROP: regression of neovascularization

B1: ranibizumab (antibody, chains of the INN, looked up, V domains shown)
VH: EVQLVESGGGLVQPGGSLRLSCAASGYDFTHYGMNWVRQAPGKGLEWVGWINTYTGEPTYAADFKRRFTFSLDTSKSTAYLQMNSLRAEDTAVYYCAKYPYYYGTSHWYFDVWGQGTLVTVSS
VL: DIQLTQSPSSLSASVGDRVTITCSASQDISNYLNWYQQKPGKAPKVLIYFTSSLHSGVPSRFSGSGSGTDFTLTISSLQPEDFATYYCQQYSTVPWTFGQGTKVEIK
modifications: Fab
notes: anti-VEGF pharmacotherapy (Lucentis, Genentech)
[4]
  regression of choroidal neovascular membranes: regression of choroidal neovascular membranes
